Laboratory results published in patent US6653081B2, “Methods for monitoring antiretroviral therapy and guiding therapeutic decision in the treatment of HIV/AIDS” (ViroLogic, Inc., priority 2000, dated 2003).

Key:
[1] = system: RTV-011073/241V/277T; assay: Phenotypic susceptibility assay, RTV-011073/241V/277T; assay type: cell-based, HIV; conditions: RTV-011073 with 241 and 277 reverted
Description: The resistance test vectors containing a functional luciferase gene cassette were constructed and host cells were transfected with the resistance test vector DNA. The resistant test vectors contained patient-derived reverse transcriptase and protease sequences that were either susceptible or resistant to the antiretroviral agents, such as nucleoside reverse transcriptase inhibitors, (NRTIs) non-nucleoside reverse transcriptase inhibitors […] protease inhibitors. The resistance test vector viral particles produced by transfecting the resistance test vector DNA into host cells, either in the presence or absence of PRIs, were used to infect target host cells grown either in the absence of NRTIs or NNRTIs, or in the presence of increasing concentrations of the drug. The amount of luciferase activity produced in infected target host cells in the presence of varying concentrations of drug was compared to the amount of luciferase produced in infected target host cells in the absence of drug. […] The IC50 values were determined by plotting percent drug inhibition vs. log10 drug concentration. Stimulation of viral replication was measured as the percent increase in luciferase activity detected when infection occurs in the presence of drug as compared to in the absence of drug.
(§1) Host cells were seeded in 10-cm-diameter dishes and were transfected several days after plating with resistance test vector plasmid DNA and the envelope expression vector. […] HIV capsid protein (p24) levels in the harvested cell culture media were determined by an EIA method as described by the manufacturer (SAIC; Frederick, Md.). […] The inhibitory effect of the drug was determined using the following equation: […]
where RLUluc [drug] is the Relative Light Unit of luciferase activity in infected cells in the presence of drug, and RLUluc is the Relative Light Unit of luciferase activity in infected cells in the absence of drug. […] The percent luciferase stimulation is the negative of the % inhibition calculated using the formula above. […]

[2] = system: RTV-V241S; assay: Phenotypic susceptibility assay, RTV-V241S; assay type: cell-based, HIV-1; conditions: site-directed V241S alone
Description: (§2) The resistance test vectors containing a functional luciferase gene cassette were constructed and host cells were transfected with the resistance test vector DNA. The resistant test vectors contained patient-derived reverse transcriptase and protease sequences that were either susceptible or resistant to the antiretroviral agents, such as nucleoside reverse transcriptase inhibitors, (NRTIs) non-nucleoside reverse transcriptase inhibitors […] protease inhibitors. The resistance test vector viral particles produced by transfecting the resistance test vector DNA into host cells, either in the presence or absence of PRIs, were used to infect target host cells grown either in the absence of NRTIs or NNRTIs, or in the presence of increasing concentrations of the drug. The amount of luciferase activity produced in infected target host cells in the presence of varying concentrations of drug was compared to the amount of luciferase produced in infected target host cells in the absence of drug. “Drug resistance” was measured as the amount of drug required to inhibit by 50% the luciferase activity detected in the absence of drug (inhibitory concentration 50%, IC50). The IC50 values were determined by plotting percent drug inhibition vs. log10 drug concentration. Stimulation of viral replication was measured as the percent increase in luciferase activity detected when infection occurs in the presence of drug as compared to in the absence of drug.
(§3) Host cells were seeded in 10-cm-diameter dishes and were transfected several days after plating with resistance test vector plasmid DNA and the envelope expression vector. Transfections were performed using a calcium-phosphate precipitation procedure. The cell culture media containing the DNA precipitate was replaced with fresh medium, from one to 24 hours, after transfection. Cell culture media containing resistance test vector viral particles was harvested one to four days after transfection and was passed through a […] filter before being used to infect target host cells, or being stored at −80° C. HIV capsid protein (p24) levels in the harvested cell culture media were determined by an EIA method as described by the manufacturer (SAIC; Frederick, Md.). Before infection, target cells (293 and 293/T) were plated in cell culture media. Control infections were performed using cell culture media from mock transfections (no DNA) or transfections containing the resistance test vector plasmid DNA without the envelope expression plasmid. One to three or more days after infection, the media was removed and cell lysis buffer (Promega) was added to each well. Cell lysates were assayed for luciferase activity (FIG. 3). The inhibitory effect of the drug was determined using the following equation:
(§4) % luciferase inhibition=1−(RLUluc[drug]÷RLUluc)×100
(§5) where RLUluc [drug] is the Relative Light Unit of luciferase activity in infected cells in the presence of drug, and RLUluc is the Relative Light Unit of luciferase activity in infected cells in the absence of drug. IC50values were obtained from the sigmoidal curves that were generated from the data by plotting the percent inhibition of luciferase activity vs. the log10 drug concentration. The percent luciferase stimulation is the negative of the % inhibition calculated using the formula above.
A resistance test vector containing all of the mutations present in RTV-011073 except for the V241S and the T277K was constructed and tested using the phenotypic assay described earlier. The results were compared to those determined using the parent RTV-011073. We determined the pattern of phenotypic susceptibility to the NNRTIs, delavirdine, nevirapine and efavirenz, in the reverted vector RTV-011073/241V/277T. […] A resistance test vector containing all of the mutations present in RTV-011073 except for the V241S was constructed and tested using the phenotypic assay described earlier. The results were compared to those determined using the parent RTV-011073. […]

[3] = system: RTV-006782; assay: Phenotypic susceptibility assay, RTV-006782; assay type: cell-based, HIV; conditions: patient 006782; for decrease in susceptibility: V245T, I135T, E138A
Description: as §2, §3, §4, §5
(§6) A resistance test vector was constructed as described in Example 1 from a virus sample obtained from patient 006782. The prior and current treatment regimens are unknown. Isolation of viral RNA and RT/PCR was used to generate a patient derived segment (PDS) that comprised viral sequences coding for all of PR and aa 1-313 of RT. The PDS were inserted into an indicator gene viral vector to generate a resistance test vector designated RTV-006782. RTV-006782 was then tested in a phenotypic assay to determine accurately and quantitatively the level of susceptibility to a panel of anti-retroviral drugs. […]

[4] = system: RTV-013415; assay: Phenotypic susceptibility assay, RTV-013415; assay type: cell-based, HIV; conditions: patient 013415; for decrease in susceptibility: V245M with multiple other mutations
Description: as §2, §3, §4, §5
as §6, with “013415.” for “006782.”, “RTV-013415. RTV-013415” for “RTV-006782. RTV-006782”

[5] = system: RTV-1033-3/106V; assay: Phenotypic susceptibility assay, RTV-1033-3/106V; assay type: cell-based, HIV; conditions: RTV-1033-3 with V106A reverted
Description: as §2, §3, §4, §5
(§7) A resistance test vector containing all of the mutations present in RTV-1033-3 except for V106A (RTV-1033-3/106V) was constructed and tested using the phenotypic assay described earlier. The results were compared to those determined using the parent RTV-1033-3. We determined the pattern of phenotypic susceptibility to the NNRTIs, delavirdine, nevirapine and efavirenz, in the reverted vector, RTV-1033-3/106V.

[6] = system: RTV-1033-3/106V/227F; assay: Phenotypic susceptibility assay, RTV-1033-3/106V/227F; assay type: cell-based, HIV; conditions: RTV-1033-3 with V106A and F227L reverted
Description: as §2, §3, §4, §5
as §7, with “and F227L (RTV-1033-3/106V/227F)” for “(RTV-1033-3/106V)”, “RTV-1033-3/106V/227F.” for “RTV-1033-3/106V.”

[7] = system: RTV-1033-3/181C; assay: Phenotypic susceptibility assay, RTV-1033-3/181C; assay type: cell-based, HIV; conditions: RTV-1033-3 plus Y181C
Description: as §2
as §1, with “vector. Transfections were performed using a calcium-phosphate precipitation procedure.” for “vector.”
where RLUluc [drug] is the Relative Light Unit of luciferase activity in infected cells in the presence of drug, and RLUluc is the Relative Light Unit of luciferase activity in infected cells in the absence of drug. […] The percent luciferase stimulation is the negative of the % inhibition calculated using the formula above.
as §7, with “RTV-1033-3, in addition to Y181C (RTV-1033-3/181C)” for “RTV-1033-3 except for V106A (RTV-1033-3/106V)”, “mutated” for “reverted”, “RTV-1033-3/181C.” for “RTV-1033-3/106V.”

Compound | reductions in susceptibility compared to wild type control RTV [1] | drug-dependent stimulation of viral replication [2] | reductions in susceptibility compared to wild type control RTV [2] | drug-dependent stimulation of viral replication [3] | decrease in susceptibility [3] | drug-dependent stimulation of viral replication [4] | decrease in susceptibility [4] | drug-dependent stimulation of viral replication [5] | increase in susceptibility (hyper-susceptibility) compared to wild type control RTV [5] | drug-dependent stimulation of viral replication [6] | reductions in susceptibility compared to wild type control RTV [6] | reduction in susceptibility compared to wild type control RTV [7] | reduction in susceptibility compared to wild type control RTV [5] | drug-dependent stimulation of viral replication [7]
CC(C)Nc1cccnc1N1CCN(C(=O)c2cc3cc(NS(C)(=O)=O)ccc3[nH]2)CC1 [delavirdine] | 50 fold | ~25% | 6 fold | ~70% | 18.5 fold | ~30% | > 250 fold | no drug-dependent stimulation | 20 fold | ~80% | 6 fold | > 250 fold | – | –
O=C1Nc2ccc(Cl)cc2[C@@](C#CC2CC2)(C(F)(F)F)O1 [efavirenz] | 54 fold | no drug-dependent stimulation | 3 fold | ~25% | 5 fold | ~20% | > 450 fold | ~20% | – | ~80% | 6 fold | > 450 fold | no reduction | ~100%
Cc1ccnc2c1NC(=O)c1cccnc1N2C1CC1 [nevirapine] | 126 fold | ~30% | 9 fold | ~60% | 8 fold | ~20% | > 600 fold | ~40% | – | ~110% | 13 fold | > 600 fold | 9 fold | –
